According to patent US12514894B2, “Traditional Chinese medicine composition for preventing and treating diabetes, traditional Chinese medicine preparation, and use thereof” (ZHEJIANG CHINESE MEDICAL UNIVERSITY, priority 2022, dated 2026):
Where two headings read alike, the source gives them in different places.

Key:
mouse sperm = conditions: CP 0.04 g/(kg · BW), 5 days gavage, day 35
Method: The dose planning and preparation methods of the positive control and samples are shown in the in vivo micronucleus assay in mouse bone marrow. Twenty-five healthy male ICR mice weighing 25.3-29.8 g were randomly divided into three sample dose groups of 2.5, 5.0 and 10.0 mL/(kg·BW), a solvent control group (purified water), and a positive control group [CP 0.04 g/(kg-BW)] by body weight, with five mice in each group. Animals in each group were given gastric gavage once a day for five consecutive days, and the gavage capacity was 20 mL/(kg·BW). At 35 days after the first administration of the test solution, the mice were sacrificed, bilateral epididymides were removed, and the epididymides were cut longitudinally with ophthalmic scissors, filtered, smeared, dried, fixed with methanol, stained with 2% (m:V) eosin, and microscopically observed.

[1] = test system: mouse bone marrow polychromatic erythrocytes (PCEs); conditions: CP 0.04 g/(kg · BW)
Method: The test solutions of each dose group were prepared by diluting 2.5, 5.0, and 10.0 mL of TCM decoction to 20 mL with purified water, respectively (each equivalent to 25, 50, and 100 times the recommended daily intake of an adult). For a positive control, 0.04 g of cyclophosphamide (CP) was diluted with purified water to 20 mL for later use. Fifty ICR mice weighing 25.1-30.0 g were randomly divided into three sample dose groups of 2.5, 5.0 and 10.0 mL/(kg·BW), a solvent control group (purified water) and a positive control group [CP 0.04 g/(kg·BW)] by gender and body weight, with 10 mice in each group, half male and half female. The gavage capacity was 20 mL/(kg·BW) each time, and the femoral bone marrow was suspended in calf serum for direct smear, methanol fixation, and Giemsa staining 6 h after the second gastric gavage. […] The number of normochromatic erythrocytes (NCEs) observed was counted while 200 PCEs per animal was observed. The ratio of both (PCE/NCE) was calculated. The results are as follows (see Table 1).

[2] = test system: Salmonella typhimurium TA100; assay: Ames test, strain TA100; type: cell-based; conditions: Test 2
Method: (§1) The TCM decoction (20 mL) was sterilized at 121° C. for 20 min as a test solution. During the test, 0.1 mL of the test solution was added to each dish in the highest dose group, namely 5 μL/dish, and there was no contamination or inhibition during the pre-test. In the formal test, the test solution in the highest dose group was serially diluted 5 times with sterile purified water successively, and prepared into four test solutions with doses of 1, 0.2, 0.04, and 0.008 μL/dish, and five sample dose groups were formed. In addition, a solvent control group (sterile purified water), a blank control group (spontaneous reverse mutation group) and four positive control groups were set up. The solvents and dosages required for the preparation of positive controls sodium azide, Dexon, 2-aminofluorene and 1,8-dihydroxyanthraquinone are shown in Table 1. Sequentially, 0.1 mL each of the fresh enrichment broth of tester strain and the test solution were added into a top-layer culture medium held in a 45° C. water bath, 0.5 mL of 10% (V:V) S9 mixture was added when activated, and an equal volume of 0.2 mol/L pH7.4 phosphate buffer saline (PBS) was added without activation; after mixing well, the mixture was rapidly poured onto the bottom-layer culture medium, and the plate was rotated to uniformly distribute the top-layer culture medium on the bottom layer. […]

[3] = test system: standard tester strains TA97a, TA98, TA100, and TA102; assay: Ames test, conclusion over the four tester strains; type: cell-based, Salmonella typhimurium; conditions: each of four strains, regardless of addition of S9, two duplicate tests
Method: as §1

[4] = test system: Salmonella typhimurium TA102; assay: Ames test, strain TA102; type: cell-based; conditions: Test 2
Method: as §1

[5] = test system: Salmonella typhimurium TA98; assay: Ames test, strain TA98; type: cell-based; conditions: Test 2
Method: as §1

[6] = test system: SD rats with diabetes of dampness-heat pattern; assay: Lowering of blood glucose in rats with type 2 diabetes; type: in vivo, rat
Excerpt: Dose Planning: Low-, medium- and high-dose groups were designed in this experiment: 10 g (crude drug)/kg, 20 g (crude drug)/kg, and 40 g (crude drug)/kg. The dose groups were given by gastric gavage for 30 consecutive days, and the control group was given an equal quantity of normal saline.
SD rats with diabetes of dampness-heat pattern were modeled with reference to the 2014 edition of the Ideas and Methods of Clinical-mimetic Research on Integrated Animal Models of Disease and Syndrome. The specific method was as follows: Sixty specific pathogen-free (SPF) grade male Sprague-Dawley (SD) rats weighing 160-180 g were selected, 10 male SD rats were assigned to a normal control group, and the rest 50 ones were fasted but not deprived of water for 16-18 h (21:00 PM to 14:00 PM the next day); STZ was prepared into a 1.0% solution with […] citric acid buffer (pH=4.2, 4° C.), and the rats were fed with high-sugar and high-fat diet on Day 3 after tail vein injection of 10 mg kg^−1 STZ; the type 2 diabetes model was replicated by continuous high-sugar and high-fat feeding for 6-8 weeks (impaired glucose tolerance was deemed as successful modeling), and the normal control group was fed with normal diet. Later, after all rats were fed with normal animal feed and normally drank water for one week, they fasted but not deprived of water for 12 h; the tails of the rats were disinfected with alcohol, and the fasting plasma glucose of the rats was measured by tail vein blood sampling. […] After the successful modeling, the rats were given normal animal feed and access to water ad libitum for one week, so as to detect the stability of the model.
After the successful modeling, 50 rats were divided into a model control group, a positive control group, a low-dose TCM decoction group, a medium-dose TCM decoction group, and a high-dose TCM decoction group. Ten rats in the blank control group were given access to ordinary animal feed and water ad libitum, and an equal volume of normal saline was administered daily by gastric gavage. Ten rats in the model control group were given access to ordinary animal feed and water ad libitum, and an equal volume of normal saline was administered daily by gastric gavage. Ten rats in the positive control group were given access to ordinary animal feed and water ad libitum, and 0.25 g/kg metformin was administered daily by gastric gavage. Ten rats in the low-dose TCM decoction group were given access to ordinary animal feed and water ad libitum, and 10 g (crude drug)/kg TCM decoction was administered daily by gastric gavage. Ten rats in the medium-dose TCM decoction group were given access to ordinary animal feed and water ad libitum, and 20 g (crude drug)/kg TCM decoction was administered daily by gastric gavage. Ten rats in the high-dose TCM decoction group were given access to ordinary animal feed and water ad libitum, and 40 g (crude drug)/kg TCM decoction was administered daily by gastric gavage. All rats were fed for a total of 30 days. Rat body weight, fasting plasma glucose, and insulin level were measured before and after SD rat modeling and after gastric gavage.

[7] = test system: Salmonella typhimurium TA97a; assay: Ames test, strain TA97a; type: cell-based; conditions: Test 2
Method: as §1

[8] = 0.25 g/kg metformin daily by gavage, 30 days
[9] = positive control and the three TCM decoction dose groups, P<0.05
[10] = positive control group (0.25 g/kg metformin), baseline
[11] = positive control group (0.25 g/kg metformin), before treatment

O=P1(N(CCCl)CCCl)NCCCO1 (centres unmarked) [CP, cyclophosphamide]
Abnormality rate (mouse sperm): 6.49 ± 0.74 % | Total number of abnormal sperms (mouse sperm): 357 n | Type of abnormal sperms: Amorphous (mouse sperm): 157 | Type of abnormal sperms: Banana-like (mouse sperm): 8 | Type of abnormal sperms: Folded (mouse sperm): 6 | Type of abnormal sperms: Hookless (mouse sperm): 169 | Type of abnormal sperms: Large (mouse sperm): 7 | Type of abnormal sperms: Two-head (mouse sperm): 3 | Type of abnormal sperms: Two-tailed (mouse sperm): 7 | Frequency of micronucleated cells ([1]; female): 15.64 ± 5.16 ‰ | Number of micronucleated PCEs ([1]; female): 88 n | PCE/NCE ([1]; female): 1.02 ± 0.18 | Frequency of micronucleated cells ([1]; male): 17.57 ± 4.87 ‰ | Number of micronucleated PCEs ([1]; male): 78 n | PCE/NCE ([1]; male): 1.03 ± 0.16

CN(C)C(=N)N=C(N)N [Positive control, metformin]
number of revertant colonies ([2]; TA100, +S9, positive control): 1171 ± 91 | number of revertant colonies ([2]; TA100, −S9, positive control): 987 ± 117 | number of revertant colonies compared with the solvent control [3]: more than twice that of the corresponding solvent control | number of revertant colonies ([4]; TA102, +S9, positive control): 1085 ± 91 | number of revertant colonies ([4]; TA102, −S9, positive control): 973 ± 76 | number of revertant colonies ([5]; TA98, +S9, positive control): 1049 ± 94 | number of revertant colonies ([5]; TA98, −S9, positive control): 1091 ± 78 | Body weight before administration [6, 8]: 435.4 ± 25.3 g | fasting plasma glucose: Blood glucose after administration [6, 8]: 6.65 ± 1.39 mmol/L | insulin level After administration [6, 8]: 44.13 ± 5.42 uIU/mL | body weight after administration compared with model control group [6, 9]: lower than that in the model control group | fasting plasma glucose after administration compared with after modeling [6, 9]: significantly lower than that after modeling | insulin levels after administration compared with after modeling [6, 9]: significantly lower than those after modeling | Body weight before modeling [6, 10]: 166.3 ± 10.8 g | fasting plasma glucose: Blood glucose before modeling [6, 10]: 6.02 ± 0.48 mmol/L | Body weight after modeling [6, 11]: 463.5 ± 17.3 g | fasting plasma glucose: Blood glucose after modeling [6, 11]: 20.15 ± 3.23 mmol/L | insulin level Before administration [6, 11]: 73.45 ± 9.45 uIU/mL | number of revertant colonies ([7]; +S9, positive control): 1061 ± 84 | number of revertant colonies ([7]; −S9, positive control): 1027 ± 98
